The subject of the assay is USP25 phosphorylation at SQ/TQ motif in HEK293T cells. Put plainly: USP25 phosphorylation (p-SQ/TQ) after IR, IP and immunoblot. The settings on record: IR (10 Gy), Ku55933 (25 µM) for 2 h pretreatment or phosphatase treatment of immunoprecipitated USP25. The assay is classed as cell-based. The protocol: Figure 4 Regulation of the DDR signaling by USP25. a) HEK293T cells were left untreated or treated with IR (10 Gy) or 5‐Fu (20 uM). USP25 was immunoprecipitated and immunoblotted with phospho‐SQ/TQ (p‐SQ/TQ). b) HEK293T cells were pretreated with Ku55933 (25 µM) for 2 h followed by treatment with IR(10 Gy). After 1 h, USP25 was immunoprecipitated, left untreated, or treated with phosphatase and immunoblotted with p‐SQ/TQ. c) HEK293T cells transfected with USP25^WT and indicated constructs were left treated with IR(10 Gy). USP25 was immunoprecipitated and immunoblotted with p‐SQ/TQ. d) USP25 knockdowm U2OS cells rescued with USP25WT or USP25T523A were treated with IR (2 Gy), and co‐localization USP25 with γH2AX was detected by immunofluorescence. n>80 in each group. e) HEK293T cells were left untreated or treated with 5‐Fu (20 uM). […] The interaction USP25 and MDC1 deletions was detected. g) HEK293T cells transfected with USP25^WT or USP25^T523A were treated with IR, and cell lysates were incubated with GST or GST‐MDC1‐BRCT in vitro. The interaction USP25 and MDC1‐BRCT was detected. h) Non‐phosphorylated or phosphorylated Thr523 peptide was conjugated to beads and incubated with purified GST‐MDC1‐BRCT domain in buffer. […]
(Immunoblotting shows a protein as a band on a membrane.)

Consider `O=c1cc(-c2cccc3c2Sc2ccccc2S3)oc(N2CCOCC2)c1` [Ku55933], for which the USP25 phosphorylation result is on record as “abolished”.
